Measured values published in patent US20060276464A1, “Diarylsulfone sulfonamides and use thereof” (Wyeth, priority 2005, published 2006).
pEC50, pIC50: −log10 of the molar value. Where a name gives a salt, the structure may show the parent alone.

Columns and labels:
[1] = molecular target: T1, SFRP-1 (Homo sapiens, UniProt Q8N474); assay: Fluorescence polarization binding assay (competitive displacement of a probe compound from SFRP-1); conditions: fluorescence anisotropy, 45 nM SFRP-1, 20 nM probe;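 also: test compound competes with a fluorescent probe held by SFRP-1, seen as a drop in probe anisotropy after incubation in darkness, with anisotropy as function of rising compound dose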
T1 sequence (Q8N474 32-314): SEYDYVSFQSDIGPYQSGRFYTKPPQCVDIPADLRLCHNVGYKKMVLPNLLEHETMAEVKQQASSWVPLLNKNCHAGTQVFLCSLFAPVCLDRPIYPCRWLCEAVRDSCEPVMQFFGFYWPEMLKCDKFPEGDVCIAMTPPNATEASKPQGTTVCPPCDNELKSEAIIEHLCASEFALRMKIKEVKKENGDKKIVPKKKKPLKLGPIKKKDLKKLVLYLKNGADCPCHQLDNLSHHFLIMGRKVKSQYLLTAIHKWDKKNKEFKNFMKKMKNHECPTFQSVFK

[2] = molecular target: T1, SFRP-1; assay: Cell-based assay for in vitro measurement of SFRP-1/SARP2 antagonist activity (U2OS cells co-transfected with 16x TCF-tk-Luciferase reporter, Wnt and hSFRP-1); conditions: for fold induction at 10 µM: U2OS, read-out: Fold Induction with SFRP-1, U2OS cells, single dose 10 μM, luciferase reporter, fold induction over SFRP-1 control;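 as to all read-outs here: U2OS cells co-transfected with a TCF-tk luciferase reporter, a Wnt vector, hSFRP-1 or empty vector and CMV-βgal, luciferase luminescence read in cell lysates alongside βgal activity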

| SMILES | pIC50 [1] | pEC50 [2] | fold induction at 10 µM [2] |
| --- | --- | --- | --- |
| O=S(=O)(NC[C@@H](O)c1ccccc1)c1cc(S(=O)(=O)c2ccccc2)ccc1C(F)(F)F [Example 774, N-[(2S)-2-hydroxy-2-phenylethyl]-5-(phenylsulfonyl)-2-(trifluoromethyl)benzenesulfonamide] | 7.22 | 6.01 | 1.3 |
| O=C(NCCNS(=O)(=O)c1cc(S(=O)(=O)c2ccccc2)ccc1C(F)(F)F)c1ccncc1 [Example 783, N-[2-({[5-(Phenylsulfonyl)-2-(trifluoromethyl)phenyl]sulfonyl}amino)ethyl]isonicotinamide] | 6.15 | – | 3.2 |
| COc1cccc(S(=O)(=O)c2ccc(C(F)(F)F)c(S(=O)(=O)NCCO)c2)c1 [Example 785, N-(2-hydroxyethyl)-5-[(3-methoxyphenyl)sulfonyl]-2-(trifluoromethyl)benzenesulfonamide] | 5.96 | – | 2.9 |
| CC(C)(C)OC(=O)N1CCC[C@H](NS(=O)(=O)c2cc(S(=O)(=O)c3ccccc3)ccc2C(F)(F)F)C1 [Example 786, tert-butyl(3S)-3-({[5-(phenylsulfonyl)-2-(trifluoromethyl)phenyl]sulfonyl}amino)piperidine-1-carboxylate] | 5.36 | – | 1.7 |
| CC(C)(C)OC(=O)N1CCC[C@@H](NS(=O)(=O)c2cc(S(=O)(=O)c3ccccc3)ccc2C(F)(F)F)C1 [Example 787, tert-butyl(3R)-3-({[5-(phenylsulfonyl)-2-(trifluoromethyl)phenyl]sulfonyl}amino)piperidine-1-carboxylate] | 6.52 | 6.05 | 3.7 |
| O=S(=O)(N[C@H]1CCCNC1)c1cc(S(=O)(=O)c2ccccc2)ccc1C(F)(F)F [Example 790, 5-(phenylsulfonyl)-N-[(3S)-piperidin-3-yl]-2-(trifluoromethyl)benzenesulfonamide] | 5.70 | – | 3.1 |
| O=S(=O)(N[C@@H]1CCCNC1)c1cc(S(=O)(=O)c2ccccc2)ccc1C(F)(F)F [Example 791, 5-(phenylsulfonyl)-N-[(3R)-piperidin-3-yl]-2-(trifluoromethyl)benzenesulfonamide] | 5.52 | – | 3.8 |
| Cc1cc2cc(S(=O)(=O)c3ccc(C(F)(F)F)c(S(=O)(=O)NC4CCNCC4)c3)ccc2n1C [Example 792, 5-[(1,2-dimethyl-1H-indol-5-yl)sulfonyl]-N-piperidin-4-yl-2-(trifluoromethyl)benzenesulfonamide] | 6.70 | 5.64 | 1.4 |
| CN(CCNS(=O)(=O)c1cc(S(=O)(=O)c2ccccc2)ccc1C(F)(F)F)C(=O)OC(C)(C)C [Example 793, tert-Butyl methyl[2-({[5-(phenylsulfonyl)-2-(trifluoromethyl)phenyl]sulfonyl}amino)ethyl]carbamate] | 6.22 | 5.81 | 2.5 |
| CC(C)(C)OC(=O)N1CC[C@H](NS(=O)(=O)c2cc(S(=O)(=O)c3ccccc3)ccc2C(F)(F)F)C1 [Example 794, tert-butyl(3S)-3-({[5-(phenylsulfonyl)-2-(trifluoromethyl)phenyl]sulfonyl}amino)pyrrolidine-1-carboxylate] | 7.00 | 6.27 | 3.3 |
| O=S(=O)(N[C@H]1CCNC1)c1cc(S(=O)(=O)c2ccccc2)ccc1C(F)(F)F [Example 796, 5-(phenylsulfonyl)-N-[(3S)-pyrrolidin-3-yl]-2-(trifluoromethyl)benzenesulfonamide] | 6.22 | 5.87 | 4.3 |
| O=S(=O)(N[C@@H]1CCNC1)c1cc(S(=O)(=O)c2ccccc2)ccc1C(F)(F)F [Example 797, 5-(phenylsulfonyl)-N-[(3R)-pyrrolidin-3-yl]-2-(trifluoromethyl)benzenesulfonamide] | 6.10 | – | 3.5 |
| CC(C)c1ccc(S(=O)(=O)c2ccc(F)cc2)cc1S(=O)(=O)NC1CCSCC1 [Example 815, 5-[(4-fluorophenyl)sulfonyl]-2-isopropyl-N-(tetrahydro-2H-thiopyran-4-yl)benzenesulfonamide] | 5.74 | – | 2.2 |
| CC(C)(C)OC(=O)N1CCC(NS(=O)(=O)c2cc(S(=O)(=O)c3ccc(F)cc3)ccc2C(F)(F)F)CC1 [Example 818, tert-butyl 4-({[5-[(4-fluorophenyl)sulfonyl]-2-(trifluoromethyl)phenyl]sulfonyl}amino)piperidine-1-carboxylate] | 6.52 | 5.88 | 2.6 |
| CN(CCNS(=O)(=O)c1cc(S(=O)(=O)c2ccccc2)ccc1C(F)(F)F)C(=O)c1ccccc1 [Example 819, N-Methyl-N-[2-({[5-(phenylsulfonyl)-2-(trifluoromethyl)phenyl]sulfonyl}amino)ethyl]benzamide] | 6.66 | 5.80 | 3.3 |
| COc1ccc(S(=O)(=O)c2ccc(C(F)(F)F)c(S(=O)(=O)NCCC#N)c2)cc1 [Example 820, N-(2-cyanoethyl)-5-[(4-methoxyphenyl)sulfonyl]-2-(trifluoromethyl)benzenesulfonamide] | 6.60 | 6.10 | 4.1 |
| N#CCCNS(=O)(=O)c1cc(S(=O)(=O)c2ccc(O)cc2)ccc1C(F)(F)F [Example 821, N-(2-cyanoethyl)-5-[(4-hydroxyphenyl)sulfonyl]-2-(trifluoromethyl)benzenesulfonamide] | 6.52 | 6.20 | 5.1 |
| COc1ccc(C(=O)N(C)CCNS(=O)(=O)c2cc(S(=O)(=O)c3ccccc3)ccc2C(F)(F)F)cc1 [Example 822, 4-Methoxy-N-methyl-N-[2-({[5-(phenylsulfonyl)-2-(trifluoromethyl)phenyl]sulfonyl}amino)ethyl]benzamide] | 6.70 | 5.74 | 3.4 |
| O=S(=O)(NC1c2ccccc2CC1O)c1cc(S(=O)(=O)c2ccccc2)ccc1C(F)(F)F (centres unmarked) [Example 823, N-(2-hydroxy-2,3-dihydro-1H-inden-1-yl)-5-(phenylsulfonyl)-2-(trifluoromethyl)benzenesulfonamide] | 6.10 | 5.52 | 2.6 |

Other lines, results leading:

| pIC50 [1] | pEC50 [2] | fold induction at 10 µM [2] | SMILES |
| --- | --- | --- | --- |
| 5.52 | – | 3 | CC[C@H](CO)NS(=O)(=O)c1cc(S(=O)(=O)c2ccccc2)ccc1C(F)(F)F [Example 784, N-[(1R)-1-(hydroxymethyl)propyl]-5-(phenylsulfonyl)-2-(trifluoromethyl)benzenesulfonamide] |
| 7.10 | 6.85 | 3.8 | CC(C)(C)OC(=O)N1CC[C@@H](NS(=O)(=O)c2cc(S(=O)(=O)c3ccccc3)ccc2C(F)(F)F)C1 [Example 795, tert-butyl(3R)-3-({[5-(phenylsulfonyl)-2-(trifluoromethyl)phenyl]sulfonyl}amino)pyrrolidine-1-carboxylate] |
| 5.40 | – | 1.8 | Cc1ccc(S(=O)(=O)c2ccccc2)cc1S(=O)(=O)NC1CCSCC1 [Example 798, 2-methyl-5-(phenylsulfonyl)-N-(tetrahydro-2H-thiopyran-4-yl)benzenesulfonamide] |
| 5.10 | – | 2.2 | CNCCNS(=O)(=O)c1cc(S(=O)(=O)c2ccccc2)ccc1C(F)(F)F [Example 799, N-[2-(Methylamino)ethyl]-5-(phenylsulfonyl)-2-(trifluoromethyl)benzenesulfonamide hydrochloride] |
| 6.40 | 6.13 | 3.6 | O=C(c1ccccc1)c1ccc(C(=O)N2CCC(NS(=O)(=O)c3cc(S(=O)(=O)c4ccccc4)ccc3C(F)(F)F)CC2)cc1 [Example 800, N-[1-(4-benzoylbenzoyl)piperidin-4-yl]-5-(phenylsulfonyl)-2-(trifluoromethyl)benzenesulfonamide] |
| 6.74 | 5.97 | 3.4 | O=C(c1ccccc1)c1cccc(C(=O)N2CCC(NS(=O)(=O)c3cc(S(=O)(=O)c4ccccc4)ccc3C(F)(F)F)CC2)c1 [Example 801, N-[1-(3-benzoylbenzoyl)piperidin-4-yl]-5-(phenylsulfonyl)-2-(trifluoromethyl)benzenesulfonamide] |
| 6.92 | 6.51 | 4.5 | O=S(=O)(NCCc1cccnc1)c1cc(S(=O)(=O)c2ccc(O)cc2)ccc1C(F)(F)F [Example 814, 5-[(4-hydroxyphenyl)sulfonyl]-N-(2-pyridin-3-ylethyl)-2-(trifluoromethyl)benzenesulfonamide] |
| 6.57 | 5.82 | 3.8 | O=S(=O)(NCCn1ccnc1)c1cc(S(=O)(=O)c2ccc(F)cc2)ccc1C(F)(F)F [Example 816, 5-[(4-fluorophenyl)sulfonyl]-N-[2-(1H-imidazol-1-yl)ethyl]-2-(trifluoromethyl)benzenesulfonamide] |
| 6.52 | 5.94 | 3.3 | O=S(=O)(NC1CCOCC1)c1cc(S(=O)(=O)c2ccc(F)cc2)ccc1C(F)(F)F [Example 817, 5-[(4-fluorophenyl)sulfonyl]-N-(tetrahydro-2H-pyran-4-yl)-2-(trifluoromethyl)benzenesulfonamide] |
